Read-outs that look alike come from different tables or passages of the source.
Columns and labels:
Assay in all cases: NCI human tumor in vitro primary screen
Format in all cases: cell-based
A498 = conditions: renal cancer
From the text: (§1) Only two hundred years ago, many diseases ravaged humankind. Many of these diseases now have been controlled or eradicated. In the development of the means to treat or control these diseases, work with the appropriate common experimental animals was of critical importance. With the various types of cancers, and with the HIV virus, such work is presently ongoing. The research for the treatment of various types of cancer is coordinated in the United States by the National Cancer Institute (NCI). NCI, as a government entity, has been charged with assisting anti-cancer research. To establish whether a substance has anti cancer activity, NCI has established a variety of protocols, one of which involves testing the candidate substance against a cell line panel containing 60 human tumor cell lines. This protocol has been verified and is generally accepted throughout the scientific community. This protocol and the established statistical means of evaluating the results obtained therefrom have been fully described in the literature. See Principles & Practice of Oncology PPO Updates, Volume 3, Number 10, Oct. 1989, by Michael R. Boyd, M.D., Ph.D., for an indepth description of the test protocol. The statistical analysis is explained in "Display and Analysis of Patterns of Differential Activity of Drugs Against Human Tumor Cell Lines: Development of Means Graph and COMPARE Algorithm" Journal of the National Cancer Institute Reports Vol. 81, No. 14, Pg. 1088, Jul. 14, 1989, by K. D. Paull et al. Both of these references are incorporated herein by this reference thereto.
(§2) Biological Testing; Data Display and Analysis; Screening Data Summary. Freshly isolated halistatin 2 was tested in the NCI's human tumor, disease-oriented in vitro primary screen, and data calculations performed. Table 3 is a composite prepared from mean graphs constructed from the averaged GI50 values from quadruplicate screenings of Halistatin 2.

A549/ATCC = conditions: non-small cell lung cancer
From the text: as §1, §2

CAKI-1 = system: CAKI-1
From the text: as §1, §2

CCRF-CEM = conditions: leukemia
From the text: as §1, §2

COLO 205 = conditions: colon cancer
From the text: as §1, §2

DLD-1 = conditions: colon cancer
From the text: as §1, §2

HCT-116 = conditions: colon cancer
From the text: as §1, §2

HOP-18 = conditions: non-small cell lung cancer
From the text: as §1, §2

IGROV-1 = system: IGROV-1
From the text: as §1, §2

K-562 = conditions: K562, leukemia
From the text: as §1, §2

LOX IMVI = conditions: melanoma
From the text: as §1, §2

M19-MEL = conditions: melanoma
From the text: as §1, §2

MALME-3M = conditions: melanoma
From the text: as §1, §2

NCI-H23 = system: NCI-H23
From the text: as §1, §2

NCI-H522 = system: NCI-H522
From the text: as §1, §2

OVCAR-3 = conditions: ovarian cancer
From the text: as §1, §2

OVCAR-8 = conditions: ovarian cancer
From the text: as §1, §2

RPMI-8226 = conditions: leukemia
From the text: as §1, §2

SF-295 = conditions: CNS cancer
From the text: as §1, §2

SF-539 = conditions: CNS cancer
From the text: as §1, §2

SNB-78 = conditions: CNS cancer
From the text: as §1, §2

SR = conditions: leukemia, read-out: averaged negative log10 GI50 (converted)
From the text: as §1, §2

SW-620 = conditions: colon cancer
From the text: as §1, §2

XF 498 = system: XF 498
From the text: as §1, §2

[1] = read-out: Log10 GI50 (converted)
[2] = read-out: Log10 TGI (converted)
[3] = read-out: averaged negative log10 GI50 (converted)
[4] = non-small cell lung cancer, read-out: averaged negative log10 GI50 (converted)

Compound: C=C1CC2CCC34CC5OC6C(O3)C3OC(CCC3OC6(O)C5O4)CC(=O)OC3C(CC4OC(CCC1O2)CC(C)C4=C)OC1CC2OC4(CC2OC1C3C)CC1OC2(CC(C)C3OC5CC(C(O)CO)OC5CC3O2)CC(C)C1O4 (stereo not drawn) [halistatin 2]
- GI50 (A498; [1]): 1.82 nM
- IC (TGI) (A498; [2]): 10 nM
- GI50 (A498; [3]): 1.82 nM
- GI50 (A549/ATCC; [1]): 1.82 nM
- IC (TGI) (A549/ATCC; [2]): 10 nM
- GI50 (A549/ATCC; [3]): 1.82 nM
- GI50 (CAKI-1; CAKl-1, renal cancer, read-out: Log10 GI50 (converted)): 1.29 nM
- IC (TGI) (CAKI-1; CAKl-1, renal cancer, read-out: Log10 TGI (converted)): 10 nM
- GI50 (CAKI-1; renal cancer, read-out: averaged negative log10 GI50 (converted)): 1.29 nM
- GI50 (CCRF-CEM; [1]): 0.2 nM
- IC (TGI) (CCRF-CEM; [2]): 4.27 nM
- GI50 (CCRF-CEM; [3]): 0.2 nM
- GI50 (COLO 205; [1]): 0.219 nM
- IC (TGI) (COLO 205; [2]): 1.51 nM
- GI50 (COLO 205; [3]): 0.219 nM
- GI50 (DLD-1; [1]): 1.2 nM
- IC (TGI) (DLD-1; [2]): 10 nM
- GI50 (DLD-1; [3]): 1.2 nM
- GI50 (HCT-116; [1]): 0.55 nM
- IC (TGI) (HCT-116; [2]): 10 nM
- GI50 (HCT-116; [3]): 0.55 nM
- GI50 (HOP-18; [1]): 2.82 nM
- IC (TGI) (HOP-18; [2]): 10 nM
- GI50 (HOP-18; [3]): 2.82 nM
- GI50 (IGROV-1; IGROV1, ovarian cancer, read-out: Log10 GI50 (converted)): 0.891 nM
- IC (TGI) (IGROV-1; IGROV1, ovarian cancer, read-out: Log10 TGI (converted)): 10 nM
- GI50 (IGROV-1; ovarian cancer, read-out: averaged negative log10 GI50 (converted)): 0.891 nM
- GI50 (K-562; [1]): 0.229 nM
- IC (TGI) (K-562; [2]): 2.57 nM
- GI50 (K-562; [3]): 0.229 nM
- GI50 (LOX IMVI; [1]): 0.501 nM
- IC (TGI) (LOX IMVI; [2]): 4.57 nM
- GI50 (LOX IMVI; [3]): 0.501 nM
- GI50 (M19-MEL; [1]): 0.331 nM
- IC (TGI) (M19-MEL; [2]): 5.01 nM
- GI50 (MALME-3M; [1]): 0.229 nM
- IC (TGI) (MALME-3M; [2]): 10 nM
- GI50 (MALME-3M; [3]): 0.229 nM
- GI50 (NCI-H23; NCl-H23, non-small cell lung cancer, read-out: Log10 GI50 (converted)): 0.661 nM
- IC (TGI) (NCI-H23; NCl-H23, non-small cell lung cancer, read-out: Log10 TGI (converted)): 6.76 nM
- GI50 (NCI-H23; [4]): 0.661 nM
- GI50 (NCI-H522; NCl-H522, non-small cell lung cancer, read-out: Log10 GI50 (converted)): 0.2 nM
- IC (TGI) (NCI-H522; NCl-H522, non-small cell lung cancer, read-out: Log10 TGI (converted)): 0.55 nM
- GI50 (NCI-H522; [4]): 0.2 nM
- GI50 (OVCAR-3; [1]): 0.282 nM
- IC (TGI) (OVCAR-3; [2]): 1.58 nM
- GI50 (OVCAR-3; [3]): 0.282 nM
- GI50 (OVCAR-8; [1]): 1.29 nM
- IC (TGI) (OVCAR-8; [2]): 7.08 nM
- GI50 (OVCAR-8; [3]): 1.29 nM
- GI50 (RPMI-8226; [1]): 0.407 nM
- IC (TGI) (RPMI-8226; [2]): 10 nM
- GI50 (RPMI-8226; [3]): 0.407 nM
- GI50 (SF-295; [1]): 0.182 nM
- IC (TGI) (SF-295; [2]): 5.25 nM
- GI50 (SF-295; [3]): 0.182 nM
- GI50 (SF-539; [1]): 0.324 nM
- IC (TGI) (SF-539; [2]): 1.51 nM
- GI50 (SF-539; [3]): 0.324 nM
- GI50 (SNB-78; [1]): 0.12 nM
- IC (TGI) (SNB-78; [2]): 10 nM
- GI50 (SNB-78; [3]): 0.12 nM
- GI50 (SR): 0.214 nM
- GI50 (SW-620; [1]): 0.398 nM
- IC (TGI) (SW-620; [2]): 10 nM
- GI50 (SW-620; [3]): 0.398 nM
- GI50 (XF 498; XF498, CNS cancer, read-out: Log10 GI50 (converted)): 0.427 nM
- IC (TGI) (XF 498; XF498, CNS cancer, read-out: Log10 TGI (converted)): 4.47 nM
- GI50 (XF 498; XF498, XF 498, CNS cancer, read-out: averaged negative log10 GI50 (converted)): 0.427 nM

Reference: patent publication US5352804A, “Isolation and structure of Halistatin 2” (Arizona Board of Regents, a body corporate, acting on …, priority 1993, dated 1994)
